Earlier results in publication PMC12281572.
Several values for one entry are separate records, joined by “and”; a condition that tells them apart may be missing. Identical values can stand only once.

Assay: FTIR, 4-fluorophenol as donor (the pK_BHX database, per the paper)
Conditions: CCl4; 25 C

| pK_BHX (log10 Kf of the 1:1 H-bond complex with 4-fluorophenol, by FTIR) | SMILES |
| --- | --- |
| 1.3 log units | c1cocn1 |
| -0.28 log units | CC(C)(C)Cl |
| 0.86 log units | CC(=O)c1cccc(C(C)=O)c1 |
| 2.38 log units | CN1CCCC1=O |
| 2.36 log units | CN(C)C=NC1CC1 |
| 1.13 log units | C1CCC2OC2C1 (stereo not shown) |
| 1.2 log units | O=C1CCCCCCCCCC1 |
| 1.16 log units | CN(C)Cc1cccc(C(F)(F)F)c1 |
| 2.59 log units | C1CNC1 |
| -0.1 log units | CC(C)S |
| 0.17 log units | CN(C)c1ccc(Br)cc1 |
| 2.1 log units | CN(C)C=NC(=O)c1ccccc1 |
| 1.24 log units | CC(=Nc1cccc(Cl)c1)N(C)c1ccccc1 |
| 1.51 log units | CN(C)C=NS(=O)(=O)c1ccccc1 |
| 1.47 log units | Cc1cc(C)ncn1 |
| 1.27 log units | COc1ccc(C(=O)c2ccccc2)cc1 |
| 1.04 log units | CCCCCCCCO |
| 2.3 log units | CNC(C)=O |
| 0.68 log units | C#CC(C)=O |
| 1.71 log units | CC(=O)c1ccc(N2CCCCC2)cc1 |
| 1.14 log units | CNC(C)=S |

| pK_BHX (log10 Kf of the 1:1 H-bond complex with 4-fluorophenol, by FTIR) | SMILES |
| --- | --- |
| 0.0 log units | FC12CC3CC(C1)CC(F)(C3)C2 |
| 2.0 log units | C=CCNC |
| 1.41 log units | O=CN(c1ccccc1)c1ccccc1 |
| 2.16 log units | CC(=O)N1CCOCC1 |
| 1.29 log units | Cc1cnc(C)cn1 |
| 0.8 log units | COc1cccc(C#N)c1 |
| 3.16 log units | O=P(c1ccccc1)(c1ccccc1)c1ccccc1 |
| 2.7 log units | CN=CN(C)C |
| -0.13 log units | C=CSCC |
| -0.38 log units | C1CSCS1 |
| 1.31 log units | Brc1cccnc1 |
| 1.56 log units | C#CCN |
| 2.21 log units | CNC(C)(C)C |
| 2.13 log units | COc1ccncc1 |
| 1.63 log units | CCN(C#N)CC |
| 2.12 log units | CN(C)C=NCc1ccc(Cl)cc1 |
| 1.07 log units | CC(=Nc1ccc(Cl)cc1)Nc1ccc(Cl)cc1 |
| 2.01 log units | CC(=Nc1ccc(C)cc1)Nc1ccc(C)cc1 |
| -0.74 log units | CC1=CCCCC1 |
| 1.06 log units | COC(=O)C1CCCCC1 |
| 1.43 log units | CC1(C)CCC(C)(C)O1 |

| pK_BHX (log10 Kf of the 1:1 H-bond complex with 4-fluorophenol, by FTIR) | SMILES |
| --- | --- |
| 2.6 log units | CN1CCCCC1=O |
| -0.27 log units | ClC1CCCCC1 |
| -0.18 log units | CC(C)c1cc(C(C)C)cc(C(C)C)c1 |
| 2.08 log units | COc1ccc(N=CN(C)C)cc1 |
| -0.14 log units | Cc1ccc(C)c(C)c1C |
| 1.09 log units | CCOC(=O)C(C)C |
| 2.49 log units | CN(C)C(=O)c1ccc(N(C)C)cc1 |
| 0.71 log units | NCC(F)(F)F |
| 1.12 log units | COC(=O)C1CC1 |
| -0.38 log units | CCCCCCl |
| 1.4 log units | Cc1cccc(NC(=Nc2ccccc2)c2ccccc2)c1 |
| 2.01 log units | CCc1cccnc1 |
| 3.12 log units | Cc1cc[n+]([O-])cc1 |
| 1.63 log units | Clc1ccc(N=CNc2ccc(Cl)cc2)cc1 |
| 1.33 log units | C1N2CN3CN1CN(C2)C3 |
| 0.08 log units | CCOC(=O)C(F)(F)F |
| 2.13 log units | CCN(CC)C(=O)C(C)(C)C |
| 2.36 log units | Cc1ccc(CN=CN(C)C)cc1 |
| 0.86 log units | OCc1ccccc1 |
| 1.08 log units | COC(=O)c1ccc(OC)cc1 |
| 1.55 log units | NCc1cccc(Cl)c1 |

| pK_BHX (log10 Kf of the 1:1 H-bond complex with 4-fluorophenol, by FTIR) | SMILES |
| --- | --- |
| 1.05 log units | Clc1cccc(N=C(Nc2ccccc2)c2ccccc2)c1 |
| -0.01 log units | CCOc1ccccc1 |
| 1.42 log units | Cc1ccc(N=C(c2ccccc2)N(C)c2ccc(Br)cc2)cc1 |
| 1.75 log units | CC(=Nc1ccc(C)cc1)N(C)c1ccccc1 |
| 2.3 log units | C#CCN=CN(C)C |
| 2.09 log units | CN(C)C=NC#N |
| -0.3 log units | CC(C)Cl |
| 1.37 log units | CNCCC#N |
| 1.27 log units | OC12CC3CC(CC(C3)C1)C2 |
| 0.87 log units | Brc1ccc(N=C(Nc2ccc(Br)cc2)c2ccccc2)cc1 |
| 2.92 log units | CN(C)C1=CC(=O)CC(C)(C)C1 |
| 2.43 log units | CCN(CC)C(=O)N(CC)CC |
| 2.03 log units | O=c1ccocc1 |
| -0.02 log units | FC1C2CC3CC(C2)CC1C3 (stereo not shown) |
| 2.61 log units | CC(=O)N1CCCC1 |
| 1.04 log units | CCOC(=O)C(C)(C)C |
| 1.23 log units | COc1ccc(N(C)C(=Nc2ccc(Br)cc2)c2ccccc2)cc1 |
| 1.37 log units | Ic1cccnc1 |
| 1.13 log units | CCOC(=O)c1ccc(OC)cc1 |

| SMILES | pK_BHX (log10 Kf of the 1:1 H-bond complex with 4-fluorophenol, by FTIR) |
| --- | --- |
| CC(=O)c1ccc2ccccc2c1 | 1.13 log units |
| CCO | 1.02 log units |
| N#Cc1ccc(F)cc1 | 0.72 log units |
| CC(C)C(=O)C(C)C | 1.08 log units |
| O=S(c1ccc(Cl)cc1)c1ccc(Cl)cc1 | 1.68 log units |
| COCCOC | 1.02 log units |
| CN1CCc2ccccc2C1 | 1.8 log units |
| Cc1ccnc2c1ccc1c(C)ccnc12 | 3.34 log units |
| Cc1ccnc(C)c1 | 2.21 log units |
| c1ccccc1 | -0.49 log units |
| CN1CCN(C)C1=O | 2.46 log units |
| c1ccc2c(c1)CCO2 | 0.21 log units |
| c1ccc(Sc2ccccc2)cc1 | -0.51 log units and -0.93 log units |
| C=Cc1ccncc1 | 1.95 log units |
| O=S1OCCO1 | 0.87 log units |
| CCCN | 2.2 log units |
| CN1CCC(Cl)CC1 | 1.7 log units |
| CN1C2CCCC1CC2 | 2.39 log units |

| SMILES | pK_BHX (log10 Kf of the 1:1 H-bond complex with 4-fluorophenol, by FTIR) |
| --- | --- |
| Cc1ccc(C)cc1 | -0.29 log units |
| Cc1ccccc1C | -0.27 log units |
| N#CN1CCCCC1 | 1.58 log units |
| COC=O | 0.65 log units |
| Cc1cccc(C)n1 | 2.14 log units |
| CCN(CC)CC | 1.98 log units |
| COc1ccc(C(=O)c2ccc(OC)cc2)cc1 | 1.49 log units |
| CN(C)C=O | 2.1 log units |
| CS(C)=O | 2.54 log units |
| Clc1ccccn1 | 1.05 log units |
| CC(C)=O | 1.18 log units |
| NC1CCCCC1 | 2.29 log units |
| FCCCF | -0.27 log units |
| COc1ccc(C(C)=O)cc1 | 1.33 log units |
| Cc1ccncc1 | 2.07 log units |
| CCS | -0.16 log units |
| OC1CCCCC1 | 1.14 log units |
| CCCN(CCC)CCC | 1.47 log units |
